Data: publication PMC9061822, “A novel SRSF3 inhibitor, SFI003, exerts anticancer activity against colorectal cancer by modulating the SRSF3/DHCR24/ROS axis” (Cell Death Discovery, 2022)
One block for each molecule: values may come before it.

Assays:
ROS = experiment: Detection of ROS (DCFH-DA) in HCT-116 and SW480 cells; format: cell-based, Human; conditions: 20 μM SFI003 with 5 mM NAC or 100 μM Trolox, 72 h
Description: Following treatment with SFI003 or siRNA, the cells were washed with PBS and incubated with DCFH-DA for 20 min at 37 °C. After washing three times, the cells were collected and measured at 488 nm excitation and 525 nm emission by a microplate reader (Tecan, Switzerland) according to the manufacturer’s instructions (Beyotime, Shanghai, China). The protein concentrations were determined by using a BCA assay (TaKaRa, Kusatsu, Japan).

HCT-116 and SW480 cells = experiment: WB of EMT and apoptosis markers with ROS scavengers; format: cell-based, Human; conditions: 20 μM SFI003 with 5 mM NAC or 100 μM Trolox, 72 h
Description: After cell lysates were prepared, protein concentrations were determined by a BCA assay (TaKaRa, Kusatsu, Japan). Equal amounts of protein were separated by SDS–PAGE and transferred to polyvinylidene difluoride membranes. After normalization, the blots were probed with appropriate antibodies, as described previously.

HCT-116 xenografts = HCT-116 xenografts in SCID mice; format: in vivo; conditions: HCT-116 xenografts, 100 mg/kg orally, two weeks
Description: To explore the effect of SFI003 on the growth of CRC, approximately 3 × 10^6 HCT-116 cells or 8 × 10^6 SW480 cells were collected and mixed with Matrigel (Corning, NY, USA) at a 1:1 ratio by volume and then injected into the lower back region of mice. When tumors were palpable, mice were randomly divided into four groups. One group received vehicle as a control, while the other three groups were orally administered SFI003 at a dosage of 100 or 200 mg/kg or capecitabine at a dosage of 100 mg/kg for two continuous weeks. The tumor sizes and mouse body weights were monitored every other day. At the end of the experiment, tumors and blood samples were collected for further studies. The tumor size was evaluated according to Eq.: tumor size (mm^3) = (length × width^2) × 0.5.

SRSF3 = target: T1, SRSF3 (Homo sapiens, UniProt P84103); experiment: Biological experimental assays of screened compounds against SRSF3; conditions: screening hit among 22 selected compounds
T1 sequence (P84103 1-164): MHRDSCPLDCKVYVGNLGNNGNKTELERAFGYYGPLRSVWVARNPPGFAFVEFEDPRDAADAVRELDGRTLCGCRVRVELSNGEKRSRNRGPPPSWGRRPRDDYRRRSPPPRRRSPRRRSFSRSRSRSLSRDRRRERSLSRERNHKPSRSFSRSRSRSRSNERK

HCT-116 cells = experiment: MTT assay in HCT-116 cells; format: cell-based, Human; conditions: Homo sapiens; HCT-116 cells, 72 h
Description: (§1) Human CRC cell lines were purchased from the American Type Culture Collection (VA, USA). HCT-116 cells were cultured in DMEM (HyClone, Utah, USA) containing 10% fetal bovine serum (FBS; Gibco, NY, USA). SW480 cells were cultured in RPMI 1640 medium (HyClone, Utah, USA) containing 10% FBS. All cells were cultured in an incubator (Thermo, CA, USA) at a constant temperature of 37 °C and 5% CO2. N-Acetylcysteine (NAC), Trolox, MLN4924, 5-Fu, and capecitabine were purchased from MedChemExpress LLC (Shanghai, China). MG132 was purchased from Santa Cruz Biotech (CA, USA). Chloroquine (CHQ) was purchased from Sigma (CA, USA). Rapamycin was purchased from Beyotime (Shanghai, China). Primary antibodies against SRSF3 and E-Cadherin were purchased from Abcam (Cambridge, UK). Primary antibodies against N-Cadherin, Caspase 3, DHCR24, CAT, Akt and phospho-Akt (Ser473) were purchased from Cell Signaling Technology (MA, USA). Primary antibodies against β-actin, mTOR, and phospho-mTOR ([…]) were purchased from Beyotime (Shanghai, China). Primary antibody against Vimentin was purchased from Proteintech (Wuhan, China). Primary antibody against Bcl-2 was purchased from Santa Cruz Biotech (CA, USA). Primary antibody against Flag was purchased from MBL Beijing Biotech (Beijing, China). CRC cells were transfected with 100 nM siRNA or treated with various doses of SFI003 for 24 h, 48 h, or 72 h before being subjected to MTT assay as described previously.

SW480 cells = experiment: MTT assay in SW480 cells; format: cell-based, Human; conditions: Homo sapiens; SW480 cells, 72 h
Description: as §1

Compound: Cc1c(C)c2c(c(C)c1O)CCC(C)(C(=O)O)O2 (stereo not drawn) [Trolox]
effect on SFI003-induced ROS (ROS): significantly reversed
effect on SFI003-induced apoptosis and migration disability (HCT-116 and SW480 cells): reversed

Compound: CCCCCOC(=O)Nc1nc(=O)n([C@@H]2O[C@H](C)[C@@H](O)[C@H]2O)cc1F [capecitabine, reference compound]
number of tumors that disappeared (HCT-116 xenografts): one

inhibitory activity against SRSF3 (SRSF3): satisfactory inhibitory activity
Compound: C/C(=N\Nc1nc(-c2ccc(O)cc2)cs1)C1=CSCN1 [compound 6]

IC50 (HCT-116 cells): 33.2 µM
IC50 (SW480 cells): 16.8 µM
Compound: CO[C@H]1C[C@@H]2CC[C@@H](C)[C@@](O)(O2)C(=O)C(=O)N2CCCC[C@H]2C(=O)O[C@H]([C@H](C)C[C@@H]2CC[C@@H](O)[C@H](OC)C2)CC(=O)[C@H](C)/C=C(\C)[C@@H](O)[C@@H](OC)C(=O)[C@H](C)C[C@H](C)/C=C/C=C/C=C/1C [rapamycin, reference compound]
